Assay in all cases: inhibition of tumour cell growth, NCI panel, 48 h
Assay [1] relates to ACHN renal.
The subject of assay [2] is HCT-15 colon.
The subject of assay [3] is HOP-62 NSCLC.
For assay [4], the system named is KM12 colon.
In assay [5] the test system is NCI-H226 lung.
Assay [6] has as its system OVCAR-4 ovarian.
For assay [7], the system named is PC-3 prostate.
Assay [8] has as its system SF-268 CNS.
For assay [9], the system named is SK-OV-3 ovarian.
In assay [10] the test system is HL-60(TB) leukemia.

The structures appear in SMILES notation.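 How tested: cells in 96-well plates exposed to compound for 48 hours at five concentrations. At the GI50, growth is halved. TGI denotes the concentration required for complete inhibition of growth.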

For the compound `CCOc1cc(C(C)(C)C)ccc1C1=N[C@H](c2ccc(Cl)cc2)[C@H](c2ccc(Cl)cc2)N1C(=O)N1CCN(CC#Cc2cccc3c2CN([C@@H]2CCC(=O)NC2=O)C3=O)CC1`, the GI50 is 1.24 µM in [1]; 0.301 µM in [2]; 0.115 µM in assay [3]; 2.22 µM in assay [4]; 0.112 µM in assay [5]; 0.101 µM in assay [6]. In addition, the GI50 in assay [7] is 0.085 µM; in [8] it was 1.2 µM; in assay [9], 6.95 µM. In addition, the TGI was 12.4 µM in assay [1]; above 53.5 µM in assay [2]; 16.3 µM in [3]; above 100 µM in [4]; 4.33 µM in assay [5]; above 100 µM in assay [6]. Besides, the TGI in [7] is 18.4 µM; in assay [8], above 100 µM; in assay [9] it was above 88.9 µM.
On to `C=C(C)C1CC2(C)C(C)CC(O)CC2C(OC(=O)C=C(C)C)C1O` (stereo unspecified), for which the TGI in [1] is 52 µM; in assay [2], above 100 µM; in assay [10], 50.5 µM; in [4], above 100 µM; in assay [5], 46.2 µM; in assay [6] it was above 100 µM. The TGI in [7], in [8] and in assay [9] was above 100 µM in each case.
`CCN1C(=O)/C(=C/c2c(Cl)[nH]c3cc(C)c(OC)cc23)c2ccccc21`: the GI50 in assay [1] is 9.36 µM; in assay [2], 4.19 µM; in assay [3], 5.6 µM; in assay [4], 0.483 µM; in [5], 32.2 µM; in [6], 29.8 µM. Also, the GI50 is 3.91 µM in assay [7] and 6.18 µM in assay [8]. In addition, the TGI in [1] is above 100 µM; in assay [2], above 100 µM; in [3] it was 30.8 µM; in assay [4], 12.2 µM; in assay [5] it was above 100 µM; in [6], above 100 µM. Moreover, the TGI in assay [7] and in [8] was above 100 µM each time.
Take `CN(C)CCOc1ccc([N+](=O)[O-])c2cccnc12`: the TGI in assay [1], in assay [2], in assay [10], in assay [3], in [4] and in assay [5] was above 100 µM in each case. In addition, the TGI in assay [7], in assay [8] and in [9] was above 100 µM each time.
On to `CC(C)CNc1nc(-c2ccccc2Cl)nc2ccccc12`, for which the GI50 in assay [1] was 15.1 µM; in assay [2] it was 17.1 µM; in assay [3] it was 15.8 µM; in assay [4], 23.4 µM; in assay [5], 17.7 µM; in assay [6], 17.1 µM. Moreover, the GI50 in assay [7] was 18.5 µM; in assay [8], 22.1 µM; in assay [9], 21.3 µM. In addition, the TGI in [1] came out at 33.8 µM; in [2], 32.1 µM; in assay [3], 29.2 µM; in [4], 64.4 µM; in [5] it was 35 µM; in [6] it was 50.5 µM. Also, the TGI worked out at 46.4 µM in assay [7], 40.4 µM in assay [8] and 50.1 µM in assay [9].
Consider `COc1cc(Nc2ncccc2C(=O)Nc2nc3ccc(F)cc3s2)cc(OC)c1OC`, for which the GI50 is 4.82 µM in assay [1]; 4.38 µM in assay [2]; 5.78 µM in assay [3]; 3.79 µM in [4]; 2.95 µM in [5]; 2.73 µM in assay [6]. Besides, the GI50 was 2.73 µM in assay [7], 6.56 µM in [8] and 7.4 µM in assay [9]. Also, the TGI in assay [1], in assay [2], in assay [3], in [4], in assay [5] and in assay [6] was above 100 µM throughout. The TGI in assay [7], in assay [8] and in assay [9] was above 100 µM each time.
For the compound `[N-]=[N+]=NCCCn1c2c(c3ccc([N+](=O)[O-])cc3c1=O)C(=O)c1ccccc1-2`, the GI50 in assay [1] is 9.14 µM; in assay [2], 75.5 µM; in assay [10] it was 0.0101 µM; in assay [3] it was above 100 µM; in [4] it was above 100 µM; in assay [7], 38 µM. Moreover, the GI50 in [8] was 79.8 µM; in assay [9] it was above 100 µM. Further, the TGI in assay [1], in assay [2], in assay [10], in assay [3], in assay [4] and in [7] was above 100 µM each time. Moreover, the TGI in assay [8] and in [9] was above 100 µM in each case.
For the compound `Cc1ccc(S(=O)(=O)N=Nc2c(O)[nH]c3cc(O)c(C(=O)O)cc23)cc1`, the TGI in [1], in assay [2], in [3], in assay [4], in assay [5] and in assay [6] was above 100 µM in each case. In addition, the TGI in assay [7], in [8] and in [9] was above 100 µM in each case.
As for `C=C(C)[C@@H]1CC[C@]2(COCCCN)CC[C@]3(C)[C@H](CC[C@@H]4[C@@](C)(CCCNCCCN)[C@H](C(=C)C)CC[C@]43C)[C@@H]12`, the GI50 in [1] was 1.75 µM; in [2] it was 1.3 µM; in assay [10] it was 1.64 µM; in assay [3], 1.66 µM; in [4] it was 1.74 µM; in assay [6], 1.72 µM. Moreover, the GI50 in [7] was 1.7 µM; in assay [8], 1.84 µM; in [9] it was 2.23 µM. Also, the TGI in assay [1] was found to be 3.13 µM; in [2], 2.63 µM; in assay [10] it was 3.47 µM; in assay [3] it was 3.25 µM; in assay [4] it was 3.14 µM; in assay [6], 3.17 µM. Further, the TGI in assay [7] is 3.25 µM; in assay [8] it was 3.72 µM; in assay [9], 4.9 µM.
Take `CCN1CCCc2cc3c(C(F)(F)F)cc(=O)oc3cc21`: the TGI in assay [1], in [2], in assay [3], in [4], in assay [5] and in [6] was above 100 µM each time. In addition, the TGI in [7] was 93.1 µM; in [8], above 100 µM; in [9] it was above 100 µM.
Consider `Nc1ncc(-c2cnn(C3CCNCC3)c2)cc1-c1nc2cc(Cl)ccc2o1`, for which the GI50 in assay [1] was 1.65 µM; in [2], 0.495 µM; in assay [10], 1.56 µM; in assay [3] it was 1.61 µM; in assay [4], 0.392 µM; in assay [7] it was 1.29 µM. In addition, the GI50 is 1.38 µM in assay [8] and 1.76 µM in assay [9]. Also, the TGI in [1] amounted to 3.08 µM; in assay [2], 1.71 µM; in [10], 3.2 µM; in [3] it was 3.1 µM; in assay [4], 1.71 µM; in assay [7] it was 2.77 µM. Moreover, the TGI was determined as 2.8 µM in assay [8] and 3.22 µM in assay [9].
`O=C(O)CCCc1ccc2ccc3ccccc3c2c1`: the TGI in [1], in assay [2], in assay [3], in assay [4], in assay [5] and in [6] was above 100 µM in each case. The TGI in [7] and in assay [8] was above 100 µM in each case.
Regarding `CN(C)C/C=C/C(=O)Nc1ccc(C(=O)N[C@@]2(C)CCC[C@@H](Nc3ncc(Cl)c(-c4c[nH]c5ccccc45)n3)C2)nc1`, the GI50 was below 0.0108 µM in assay [1]; 0.0286 µM in [2]; 0.0145 µM in [10]; 0.013 µM in [4]; 0.0141 µM in [6]; below 0.01 µM in [7]. The GI50 in [9] is 0.101 µM. Also, the TGI in [1] turned out to be 0.741 µM; in [2] it was 1.05 µM; in assay [10], 0.0665 µM; in assay [4] it was 0.194 µM; in assay [6], 0.915 µM; in assay [7], 0.0833 µM. In assay [9], this compound showed a TGI of 1.23 µM.
As for `O=C1NC(=S)S/C1=C/c1ccc2c(c1)OCO2`, the GI50 in assay [1] was above 100 µM; in assay [2], above 100 µM; in [10] it was 77.3 µM; in assay [3], above 100 µM; in assay [4] it was above 100 µM; in assay [5], above 100 µM. For the same compound, the GI50 is 82.1 µM in assay [7], above 100 µM in assay [8] and above 100 µM in assay [9]. Moreover, the TGI in assay [1], in assay [2], in [10], in [3], in assay [4] and in assay [5] was above 100 µM in each case. Further, the TGI in [7], in [8] and in assay [9] was above 100 µM throughout.

The values are drawn from PubChem BioAssay (NCI).
